Data: patent publication US6545046B2, “Method for enhanced delivery of oxybutynin and compositions thereof” (Theramax Inc., priority 2000, dated 2003)
Read-outs that look alike come from different tables or passages of the source.

Columns and labels:
[1] = In vivo nasal, oral and intravenous delivery of oxybutynin in rats; plasma levels by HPLC; settings: rat; for bioavailability: read-out: Bioavailability relative to intravenous administration (100%)
Experimental: The nasal absorption of oxybutynin was studied using an in vivo technique described previously (1). Male Sprague-Dawley rats (body weight 250±25 gm) were used in these studies. Animals were fasted overnight prior to experimentation. Surgical procedures were performed under equithesin anesthesia (3 ml/kg, i.p.). An incision was made in the neck, and the trachea cannulated with polyethylene tubing (PE-260). A closed end tube was inserted through the esophagus to the posterior part of the nasal cavity to prevent drug from entering the esophagus. The nasopalatine passage was then closed with an adhesive agent to prevent drainage of the drug from the nasal cavity to the mouth.
Blood samples were collected from a cannula inserted into the femoral artery. For intravenous drug administration, the jugular vein was cannulated.
Solutions of oxybutynin hydrochloride (5 mg/kg/100 μl) were prepared in normal saline and administered through the right nostril using a microsyringe. For oral administration, rats received an aqueous solution of oxybutynin hydrochloride (5 mg/kg) administered by gavage tube. For intravenous (i.v.) administration, the same dose of oxybutynin was injected into the jugular vein (1 ml/kg body weight). Blood samples after oxybutynin administration were collected before and at […] after drug administration, centrifuged, and serum removed and stored (−70° C.) until analysis.
Differences in the plasma oxybutynin or N-desethyloxybutynin concentrations between i.v., oral, and nasal delivery routes were compared using the Student's t test.
Analysis of oxybutynin and its metabolites N-desethyloxybutynin were performed using HPLC as described by Buyse et al. (2). Extraction of standards for calibration curve and plasma samples were performed as described previously by Hughes et al. (3).
Oxybutynin and its metabolite (N-desethyloxybutynin) were analyzed using a reverse-phase column (25 cm×[…] I.D.) and eluted with mobile phase consisting of 50% acetonitrile in […] potassium phosphate buffer, pH 6.3. The mixture was filtered and degassed prior to use. The flow rate was 0.7 ml/min, and the effluent was monitored with a dual UV detector system at 210 nm.
All determinations were performed by calculating the area ratios of each compound to the internal standard. Unknown amounts were determined from calibration curves run with each day's unknown analysis.

[2] = as above; settings: male, Sprague-Dawley, rat, mean ± SEM, read-out: AUC0-2 h
[3] = oral administration (Douchamps et al.); cited from earlier work
[4] = cited from earlier work

Row | bioavailability ([1]; male, Sprague-Dawley, plasma, other: intranasal, intranasal 5 mg/kg) [%] | bioavailability ([1]; male, Sprague-Dawley, plasma, oral 5 mg/kg) [%] | tmax ([1]; male, Sprague-Dawley, plasma, inhaled or intranasal, 5 mg/kg, intranasal oxybutynin 5 mg/kg, read-out: tmax (converted)) [min] | tmax ([1]; male, Sprague-Dawley, plasma, po, 5 mg/kg, oral oxybutynin 5 mg/kg (solution in water), read-out: tmax (converted)) [min] | Increase in bioavailability after intranasal compared to oral administration ([1]; 5 mg/kg) [fold] | tmax ([1]; oral oxybutynin 5 mg/kg (solution in water)) [min] | AUC(0-t) ([2]; inhaled or intranasal, intranasal oxybutynin 5 mg/kg) [ng·h/mL] | AUC(0-t) ([2]; oral oxybutynin 5 mg/kg) [ng·h/mL] | Compound | Systemic bioavailability [3] [%] | Patient withdrawal ([4]; intravesical oxybutynin therapy, several studies) | Patients with adverse reactions requiring discontinuance of therapy ([4]; oral 5 mg 3 times daily, clinical studies) | tmax ([1]; intranasal oxybutynin 5 mg/kg) [min] | Ratio N-desethyloxybutynin/Oxybutynin ([1]; intranasal oxybutynin 5 mg/kg, mean ± SEM, 4 rats) | Plasma concentration of N-desethyloxybutynin relative to parent compound oxybutynin ([1]; oral oxybutynin 5 mg/kg) | tmax ([1]; oral oxybutynin 5 mg/kg) [min]
1 | 90 | ~9 | 10 | 30 to 40 | ~10 | 40 | 1770 ± 190 | 180 ± 53 | CCN(CC)CC#CCOC(=O)C(O)(c1ccccc1)C1CCCCC1 (stereo not drawn) [oxybutynin, Benzeneacetic acid, a-cyclohexyl-a-hydroxy-4-(diethylamino)-2-butynyl ester] | < 6 | up to 65% | about 20% | – | – | – | –
2 | – | – | – | – | – | – | – | – | CCNCC#CCOC(=O)C(O)(c1ccccc1)C1CCCCC1 (stereo not drawn) [N-desethyloxybutynin] | – | – | – | 96 | ~0.55 | approximately 12 fold | 66
